Experiment [1] addresses Nuclear receptor subfamily 0 group B member 1 (Homo sapiens, UniProt P51843). Nature of the experiment: Luminescence-based cell-based high throughput dose response assay for inhibitors of the orphan nuclear receptor subfamily 0, group B, member 1 (DAX1; NR0B1). [Related pubchem assays (depositor defined):AID504766, AID504790]. Format: functional.
The next experiment relates to HEK293. Put plainly: cells. Format: functional, cell-based. The settings on record: Homo sapiens.
Experiment [2] addresses E3 ubiquitin-protein ligase Mdm2 (Homo sapiens, UniProt Q00987). Put plainly: enhancers of MDM2-luciferase reporter signal, concentration-effect titration, project on inhibitors of MDM2 ubiquitin ligase, cellular assay, luminescent readout, 384-well plate format (AID 1394).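 Note: MDM2 E3 inhibitors raise luminescence so EC50 is for signal enhancement.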 The experiment is classed as functional. A general note: A reporter such as luciferase makes a cellular process visible.

A short description of experiment [3]: THP-1 cell cytotoxicity, dose response, cytotoxicity control for Vif-APOBEC3G degradation inhibitor project, THP-1 cells (AID 1117359). Format: functional. The settings on record: Human immunodeficiency virus 1, THP-1.
The next experiment concerns Vero. Put plainly: Vero cell cytotoxicity, cytotoxicity control for flavivirus capping enzyme inhibitors (AID 588742). Particulars: Chlorocebus sabaeus. Format: functional.
The target in experiment [4] is Induced myeloid leukemia cell differentiation protein Mcl-1 (Homo sapiens, UniProt Q07820). Format: functional.
Experiment [5] can be described thus: HeLa cell cytotoxicity, dose response, cytotoxicity control for MgcRacGAP inhibitor project (AID 624300). Format: functional.
The target of another experiment is Genome polyprotein (dengue virus type 2, UniProt P29990). Put plainly: Dengue-2 NS5 methyltransferase inhibitors, primary screen, biochemical, confirmation dose response (AID 588689). The experiment is classed as functional.
In the next experiment the target is Beta-arrestin-1 (Homo sapiens, UniProt P49407). Nature of the experiment: inhibitors of arrestin peptide binding to AP2, dose response, biochemical, cherry pick 1, beta2-adaptin appendage, flow cytometry (AID 588783). The experiment is classed as functional. Background: In flow cytometry, cells or beads pass a laser one at a time.
For another experiment, the target named is Mu-type opioid receptor (Homo sapiens, UniProt P35372). Nature of the experiment: Counterscreen for agonists of heterodimerization of the mu 1 (OPRM1) and delta 1 (OPRD1) opioid receptors: Luminescence-based cell-based high throughput dose response assay to identify agonists of OPRM1 homodimerization. The experiment is classed as functional.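 Note: U2OS cells expressing OPRM1 and beta-arrestin as split beta-galactosidase partners.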
Experiment [6] addresses Delta-type opioid receptor (Homo sapiens, UniProt P41143). Put plainly: Counterscreen for agonists of heterodimerization of the mu 1 (OPRM1) and delta 1 (OPRD1) opioid receptors: Luminescence-based cell-based high throughput dose response assay to identify agonists of OPRD1 homodimerization. [Related pubchem assays (depositor defined):AID504326, AID504355, AID504692, AID504904, AID504905]. The experiment is classed as functional. For orientation: Counterscreens check selectivity or assay interference.

In experiment [7] the target is 5-hydroxytryptamine receptor 5A (Homo sapiens, UniProt P47898). Nature of the experiment: Counterscreen for agonists of OPRM1-OPRD1 heterodimerization: luminescence-based cell-based high throughput dose response assay to identify agonists of 5-hydroxytryptamine (serotonin) 5A receptor (HTR5A). [Related pubchem assays (depositor defined):AID504326, AID504355, AID504692, AID504904, AID504905]. Format: functional.

Experiment [8] addresses Beta-adrenergic receptor kinase 1 (Homo sapiens, UniProt P25098). Put plainly: aptamer displacement from bead-bound GRK2 – biochemical, cherry pick 1, bead flow cytometry, dose response (AID 504500).
The target of another experiment is Caspase-7 (Homo sapiens, UniProt P55210). Put plainly: human caspase-7 inhibitors, dose response, selectivity assay for caspase-6 inhibitor project, biochemical, DEVD-R110 fluorescence, cherry-pick (AID 743295). The experiment is classed as […].
For experiment [9], the target named is T1, Carboxy-terminal domain RNA polymerase II polypeptide A small phosphatase 1 (Homo sapiens, UniProt Q9GZU7).
T1 sequence (Q9GZU7 whole entry): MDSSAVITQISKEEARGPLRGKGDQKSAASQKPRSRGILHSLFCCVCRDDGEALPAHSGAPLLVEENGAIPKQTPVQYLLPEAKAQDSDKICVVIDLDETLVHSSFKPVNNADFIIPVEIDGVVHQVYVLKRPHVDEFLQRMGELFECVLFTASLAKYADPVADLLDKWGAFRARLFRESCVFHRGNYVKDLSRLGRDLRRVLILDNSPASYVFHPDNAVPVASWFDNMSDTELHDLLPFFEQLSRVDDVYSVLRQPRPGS
Put plainly: inhibitors of CTDSP1, concentration-response testing, biochemical assay, absorbance-based, actives from ultra-high-throughput screening (AID 540297). The experiment is classed as functional.

The target of another experiment is T2, Caspase-6 (Homo sapiens, UniProt P55212).
T2 sequence (P55212 whole entry): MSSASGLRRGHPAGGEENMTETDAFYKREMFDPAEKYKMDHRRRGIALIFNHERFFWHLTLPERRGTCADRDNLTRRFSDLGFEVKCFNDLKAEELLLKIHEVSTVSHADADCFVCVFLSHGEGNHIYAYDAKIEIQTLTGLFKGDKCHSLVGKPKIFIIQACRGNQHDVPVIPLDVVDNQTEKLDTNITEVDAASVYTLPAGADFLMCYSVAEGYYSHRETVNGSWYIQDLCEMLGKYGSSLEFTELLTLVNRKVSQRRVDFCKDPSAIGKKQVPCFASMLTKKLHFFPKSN
Nature of the experiment: human caspase-6 inhibitors, dose response, biochemical, VEID-R110 fluorescence, cherry-pick (AID 720632).

A further experiment addresses Caspase-8 (Homo sapiens, UniProt Q14790). Nature of the experiment: caspase-8 inhibition counter-screen, dose response, selectivity assay for caspase-6 inhibitor project, biochemical, Z-IETD-R110 fluorescence, cherry-picked samples (AID 743294).
The target of a further experiment is T3, Hexokinase HKDC1 (Homo sapiens, UniProt Q2TB90).
T3 sequence (Q2TB90 whole entry): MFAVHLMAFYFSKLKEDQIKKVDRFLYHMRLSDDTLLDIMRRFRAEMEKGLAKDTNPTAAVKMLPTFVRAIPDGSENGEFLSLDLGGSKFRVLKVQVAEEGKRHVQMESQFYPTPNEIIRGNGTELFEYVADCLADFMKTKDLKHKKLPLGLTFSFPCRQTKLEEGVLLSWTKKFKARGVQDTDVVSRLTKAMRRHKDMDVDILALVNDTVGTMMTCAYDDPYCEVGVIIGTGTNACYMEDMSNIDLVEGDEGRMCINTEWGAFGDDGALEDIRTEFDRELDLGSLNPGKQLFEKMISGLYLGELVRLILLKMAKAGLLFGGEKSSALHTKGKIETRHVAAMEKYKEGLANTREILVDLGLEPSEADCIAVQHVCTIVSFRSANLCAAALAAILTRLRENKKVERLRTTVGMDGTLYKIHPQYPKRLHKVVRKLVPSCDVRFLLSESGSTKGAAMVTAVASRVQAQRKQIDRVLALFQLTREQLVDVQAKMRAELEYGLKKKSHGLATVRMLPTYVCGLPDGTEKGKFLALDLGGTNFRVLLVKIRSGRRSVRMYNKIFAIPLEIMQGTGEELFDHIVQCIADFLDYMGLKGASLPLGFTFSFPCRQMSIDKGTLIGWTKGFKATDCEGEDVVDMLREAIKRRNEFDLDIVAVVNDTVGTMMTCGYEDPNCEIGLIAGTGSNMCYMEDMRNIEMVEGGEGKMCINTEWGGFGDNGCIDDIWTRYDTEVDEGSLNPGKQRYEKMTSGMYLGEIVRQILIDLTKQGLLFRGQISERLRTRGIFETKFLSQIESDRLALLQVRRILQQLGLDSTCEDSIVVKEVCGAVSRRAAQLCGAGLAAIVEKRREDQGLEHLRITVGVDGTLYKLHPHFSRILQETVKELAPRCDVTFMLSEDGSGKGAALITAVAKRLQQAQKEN
Put plainly: SAR analysis of small molecule inhibitors of hexokinase domain containing I (HKDC1). [Related pubchem assays (depositor defined):AID493160, AID493190]. Format: functional.

In another experiment the target is T4, Hexokinase-1 (Homo sapiens, UniProt P19367).
T4 sequence (P19367 whole entry): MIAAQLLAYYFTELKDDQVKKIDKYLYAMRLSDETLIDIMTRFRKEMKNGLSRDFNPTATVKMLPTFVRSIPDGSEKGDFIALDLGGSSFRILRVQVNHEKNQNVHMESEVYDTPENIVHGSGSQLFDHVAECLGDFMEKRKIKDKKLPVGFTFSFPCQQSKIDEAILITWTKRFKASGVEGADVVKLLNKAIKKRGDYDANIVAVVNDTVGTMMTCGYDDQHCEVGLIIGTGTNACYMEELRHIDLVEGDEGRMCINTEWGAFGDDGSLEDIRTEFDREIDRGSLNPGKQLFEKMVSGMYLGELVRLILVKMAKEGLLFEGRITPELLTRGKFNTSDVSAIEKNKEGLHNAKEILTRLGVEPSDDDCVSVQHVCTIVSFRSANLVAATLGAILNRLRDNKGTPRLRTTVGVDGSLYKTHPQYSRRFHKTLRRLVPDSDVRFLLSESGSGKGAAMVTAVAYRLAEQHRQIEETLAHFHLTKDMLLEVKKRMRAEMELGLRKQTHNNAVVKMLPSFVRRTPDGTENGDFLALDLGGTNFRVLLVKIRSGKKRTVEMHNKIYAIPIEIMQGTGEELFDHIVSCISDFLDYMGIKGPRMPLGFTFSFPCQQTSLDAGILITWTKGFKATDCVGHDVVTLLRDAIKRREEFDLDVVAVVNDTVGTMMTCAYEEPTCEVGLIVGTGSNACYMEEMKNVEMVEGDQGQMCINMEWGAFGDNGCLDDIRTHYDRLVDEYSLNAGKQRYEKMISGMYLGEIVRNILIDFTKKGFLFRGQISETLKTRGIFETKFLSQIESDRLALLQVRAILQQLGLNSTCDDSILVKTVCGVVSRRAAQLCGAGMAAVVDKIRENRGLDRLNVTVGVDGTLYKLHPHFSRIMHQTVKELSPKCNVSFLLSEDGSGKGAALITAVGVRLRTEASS
Nature of the experiment: SAR analysis of small molecule inhibitors of hexokinase domain containing I (HKDC1) in the hexokinase 1 selectivity assay. [Related pubchem assays (depositor defined):AID493160, AID493190]. Format: functional.

The source made the active and inactive calls. Some results are limits rather than exact numbers.

Nuclear receptor subfamily 0 group B member 1, sequence (P51843 whole entry): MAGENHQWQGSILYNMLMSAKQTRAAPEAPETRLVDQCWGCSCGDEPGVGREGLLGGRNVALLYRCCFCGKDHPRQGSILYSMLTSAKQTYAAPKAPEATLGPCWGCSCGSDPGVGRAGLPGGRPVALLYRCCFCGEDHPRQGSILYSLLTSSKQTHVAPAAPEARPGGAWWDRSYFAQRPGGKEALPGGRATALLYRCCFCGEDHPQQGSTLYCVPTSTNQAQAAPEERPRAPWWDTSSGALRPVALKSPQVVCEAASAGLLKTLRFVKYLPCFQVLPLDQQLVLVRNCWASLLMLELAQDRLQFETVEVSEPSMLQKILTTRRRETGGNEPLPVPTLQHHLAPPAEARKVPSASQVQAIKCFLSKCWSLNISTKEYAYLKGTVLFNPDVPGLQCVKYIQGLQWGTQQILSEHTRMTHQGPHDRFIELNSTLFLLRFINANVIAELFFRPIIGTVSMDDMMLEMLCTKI
Genome polyprotein, sequence (P29990 2492-3391 limits assumed): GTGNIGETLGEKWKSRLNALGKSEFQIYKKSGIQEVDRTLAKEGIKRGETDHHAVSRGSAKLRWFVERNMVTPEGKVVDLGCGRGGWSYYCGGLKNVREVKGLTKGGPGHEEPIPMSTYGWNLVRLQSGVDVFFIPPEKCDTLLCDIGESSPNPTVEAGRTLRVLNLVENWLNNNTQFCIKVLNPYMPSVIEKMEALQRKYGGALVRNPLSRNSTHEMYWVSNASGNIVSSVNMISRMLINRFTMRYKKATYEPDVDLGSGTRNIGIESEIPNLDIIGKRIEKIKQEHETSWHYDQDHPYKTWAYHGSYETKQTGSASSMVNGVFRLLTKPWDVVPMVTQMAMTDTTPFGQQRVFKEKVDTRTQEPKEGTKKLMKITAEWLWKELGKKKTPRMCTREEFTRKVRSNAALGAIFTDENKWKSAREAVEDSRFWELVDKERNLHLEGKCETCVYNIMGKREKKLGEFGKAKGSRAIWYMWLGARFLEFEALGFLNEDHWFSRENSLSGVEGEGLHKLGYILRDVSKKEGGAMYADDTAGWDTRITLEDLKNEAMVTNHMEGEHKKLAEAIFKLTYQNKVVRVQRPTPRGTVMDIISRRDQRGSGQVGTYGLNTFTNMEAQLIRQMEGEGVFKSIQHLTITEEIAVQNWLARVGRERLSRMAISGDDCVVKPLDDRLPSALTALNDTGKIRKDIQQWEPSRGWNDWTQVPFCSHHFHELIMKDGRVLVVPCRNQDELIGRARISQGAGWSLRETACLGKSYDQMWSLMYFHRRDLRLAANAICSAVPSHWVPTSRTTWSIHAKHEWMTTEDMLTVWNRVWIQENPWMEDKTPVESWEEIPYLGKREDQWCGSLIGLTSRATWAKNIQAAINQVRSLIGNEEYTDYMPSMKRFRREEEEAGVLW
Delta-type opioid receptor, sequence (P41143 whole entry): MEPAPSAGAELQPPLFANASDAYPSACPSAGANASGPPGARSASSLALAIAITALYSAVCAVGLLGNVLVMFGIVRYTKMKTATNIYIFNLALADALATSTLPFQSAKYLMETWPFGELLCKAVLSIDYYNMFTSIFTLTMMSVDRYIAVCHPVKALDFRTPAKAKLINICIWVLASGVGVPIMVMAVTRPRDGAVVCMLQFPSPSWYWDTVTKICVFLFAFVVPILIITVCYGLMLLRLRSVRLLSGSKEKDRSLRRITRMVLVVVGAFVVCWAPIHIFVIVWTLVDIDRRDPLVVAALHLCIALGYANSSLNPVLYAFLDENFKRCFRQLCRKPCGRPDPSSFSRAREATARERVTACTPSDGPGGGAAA
Induced myeloid leukemia cell differentiation protein Mcl-1, sequence (Q07820 whole entry): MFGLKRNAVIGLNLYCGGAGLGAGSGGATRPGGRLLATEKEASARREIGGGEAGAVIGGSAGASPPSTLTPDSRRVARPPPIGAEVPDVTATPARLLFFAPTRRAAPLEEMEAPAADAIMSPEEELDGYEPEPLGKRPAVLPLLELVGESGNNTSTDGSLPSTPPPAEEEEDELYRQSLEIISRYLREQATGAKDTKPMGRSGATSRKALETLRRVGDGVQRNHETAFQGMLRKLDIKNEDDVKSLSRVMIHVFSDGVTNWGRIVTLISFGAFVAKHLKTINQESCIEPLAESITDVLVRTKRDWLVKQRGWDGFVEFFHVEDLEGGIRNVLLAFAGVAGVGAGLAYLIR
Caspase-8, sequence (Q14790 217-374 limits assumed): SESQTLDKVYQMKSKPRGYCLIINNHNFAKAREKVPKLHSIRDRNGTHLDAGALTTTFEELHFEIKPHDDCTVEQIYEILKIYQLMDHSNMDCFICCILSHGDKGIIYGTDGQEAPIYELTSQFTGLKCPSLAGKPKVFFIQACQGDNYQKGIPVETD
Caspase-8, sequence (Q14790 385-479 limits assumed): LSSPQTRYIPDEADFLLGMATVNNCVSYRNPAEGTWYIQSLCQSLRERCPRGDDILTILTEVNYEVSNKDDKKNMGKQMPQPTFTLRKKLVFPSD
5-hydroxytryptamine receptor 5A, sequence (P47898 whole entry): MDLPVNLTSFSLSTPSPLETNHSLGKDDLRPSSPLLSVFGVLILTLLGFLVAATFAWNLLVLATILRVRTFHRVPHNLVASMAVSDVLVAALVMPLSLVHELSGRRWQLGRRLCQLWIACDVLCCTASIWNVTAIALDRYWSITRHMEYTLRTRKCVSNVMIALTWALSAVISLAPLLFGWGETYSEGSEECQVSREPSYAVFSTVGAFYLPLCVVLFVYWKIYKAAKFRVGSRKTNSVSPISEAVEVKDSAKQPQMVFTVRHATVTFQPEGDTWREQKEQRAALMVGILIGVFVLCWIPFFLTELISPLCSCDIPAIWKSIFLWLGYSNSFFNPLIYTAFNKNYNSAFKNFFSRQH
Mu-type opioid receptor, sequence (P35372 whole entry): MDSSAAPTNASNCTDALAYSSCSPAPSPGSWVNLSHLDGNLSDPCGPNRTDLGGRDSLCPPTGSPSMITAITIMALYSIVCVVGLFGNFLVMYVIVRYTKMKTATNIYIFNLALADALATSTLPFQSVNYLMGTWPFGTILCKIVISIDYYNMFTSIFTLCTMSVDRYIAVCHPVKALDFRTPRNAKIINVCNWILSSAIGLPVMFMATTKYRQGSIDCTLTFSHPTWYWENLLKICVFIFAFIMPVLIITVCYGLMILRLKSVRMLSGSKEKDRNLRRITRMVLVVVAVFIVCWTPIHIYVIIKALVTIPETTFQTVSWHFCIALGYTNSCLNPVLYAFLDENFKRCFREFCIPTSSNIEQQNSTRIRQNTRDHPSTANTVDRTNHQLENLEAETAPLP
Beta-arrestin-1, sequence (P49407 whole entry): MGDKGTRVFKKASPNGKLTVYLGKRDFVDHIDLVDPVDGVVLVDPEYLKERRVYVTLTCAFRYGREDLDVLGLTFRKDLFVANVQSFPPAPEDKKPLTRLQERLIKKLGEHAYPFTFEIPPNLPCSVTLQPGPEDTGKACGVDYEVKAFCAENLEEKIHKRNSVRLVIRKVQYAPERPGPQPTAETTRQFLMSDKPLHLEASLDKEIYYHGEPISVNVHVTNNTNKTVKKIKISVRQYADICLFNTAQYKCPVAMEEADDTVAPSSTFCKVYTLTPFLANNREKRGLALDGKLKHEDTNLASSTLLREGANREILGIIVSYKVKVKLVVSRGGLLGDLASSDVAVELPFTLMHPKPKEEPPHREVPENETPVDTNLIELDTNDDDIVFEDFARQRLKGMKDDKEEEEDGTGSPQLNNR
Caspase-7, sequence (P55210 24-198 limits assumed): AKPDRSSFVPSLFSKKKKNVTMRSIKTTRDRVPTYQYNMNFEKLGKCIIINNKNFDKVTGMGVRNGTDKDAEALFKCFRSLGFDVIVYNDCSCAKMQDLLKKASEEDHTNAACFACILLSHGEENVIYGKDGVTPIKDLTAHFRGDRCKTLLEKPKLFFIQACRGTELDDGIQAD
Caspase-7, sequence (P55210 207-303 limits assumed): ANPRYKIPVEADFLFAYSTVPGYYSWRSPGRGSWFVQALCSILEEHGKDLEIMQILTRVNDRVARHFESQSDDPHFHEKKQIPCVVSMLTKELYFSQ
E3 ubiquitin-protein ligase Mdm2, sequence (Q00987 whole entry): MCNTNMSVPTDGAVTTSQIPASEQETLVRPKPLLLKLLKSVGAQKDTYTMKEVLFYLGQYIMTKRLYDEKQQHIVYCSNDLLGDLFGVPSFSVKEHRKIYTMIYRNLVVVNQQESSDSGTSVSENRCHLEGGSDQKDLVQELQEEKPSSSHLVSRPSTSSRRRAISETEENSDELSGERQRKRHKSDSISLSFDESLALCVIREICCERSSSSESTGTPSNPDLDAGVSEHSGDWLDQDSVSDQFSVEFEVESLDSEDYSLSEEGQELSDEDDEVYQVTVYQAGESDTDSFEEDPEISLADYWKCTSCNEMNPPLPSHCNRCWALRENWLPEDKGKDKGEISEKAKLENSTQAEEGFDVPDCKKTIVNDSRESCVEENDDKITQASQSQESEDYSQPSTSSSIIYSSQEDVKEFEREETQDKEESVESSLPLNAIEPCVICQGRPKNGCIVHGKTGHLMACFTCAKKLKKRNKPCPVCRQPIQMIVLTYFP

In general, IC50 refers to the concentration that gives 50% inhibition. With `COc1ccccc1NC(=O)Nc1ccc2c(c1)OCCO2`, the IC50 (in [1]; with HEK293) was > 67.5 µM (inactive) each time.

As a reminder, the EC50 is the concentration needed to bring the measured effect to its halfway point. The term CC50 denotes the concentration at which the toxic effect on the cells reaches its halfway point. Take `Cc1cccc2c1c1ccc3c(c1n2C)C(=O)C=CC3=O`: in [2], the EC50 is 1.03 µM (active). The values for the CC50 (in [3]; in the experiment on Vero; in experiment [5]) were 14.1 µM (active), 34.7 µM (active) and 100 µM (active), respectively. In addition, the 50% inhibitory concentration (IC50) in experiment [4] is 3.22 µM (active); on Genome polyprotein, 33.5 µM (active); on Beta-arrestin-1, 7.34 µM (active).

With `Cc1c(CCOC(=O)c2ccccc2)sc[n+]1CC(=O)c1ccc(Br)cc1`, the EC50 (at Mu-type opioid receptor; in experiment [6]; in experiment [7]) was > 92.5 µM (inactive) throughout.

For orientation: AC50 means the midpoint of the concentration-response curve, whichever way the signal moves. `CCCN(C(=O)c1cccc(-n2cccc2)c1)c1c(N)n(Cc2ccccc2)c(=O)[nH]c1=O`: the EC50 in experiment [8] was 0.72 µM (active). Also, the AC50 was > 70 µM (inactive) on Caspase-7, 3.75 µM (active) at Caspase-6 and 58.8 µM (active) at Caspase-8. In addition, the 50% inhibitory concentration (IC50) in [9] was 6.44 µM (active).

As for `O=c1c2ccccc2nc(/C=C/c2ccc3c(c2)OCO3)n1Cc1ccccc1`, the IC50 on Hexokinase HKDC1 and at Hexokinase-1 was > 80 µM (inactive) in each case.
